PMC8286840, “Identifying SARS-CoV-2 antiviral compounds by screening for small molecule inhibitors of Nsp3 papain-like protease” (Biochemical Journal, 2021)
Where a name gives a salt, the structure may show the parent alone. Read-outs that look alike come from different tables or passages of the source. Where no end group is shown, it is not given here.

Key:
[1] = target: T1, SARS-CoV-2 PLpro (nsp3 1564–1878) (Severe acute respiratory syndrome coronavirus 2, UniProt P0DTD1); assay: biochemical; parameters: FRET-quenched peptide (Pro3) cleavage by PLpro, 10 min pre-incubation, slope over 20 min, normalised to no-compound control
[2] = target: T1, SARS-CoV-2 PLpro (nsp3 1564–1878); assay: biochemical; parameters: FRET-quenched peptide (Pro3) cleavage by PLpro, 10 min pre-incubation, slope over 20 min, normalised to no-compound control; remark: listed apart in the source
[3] = read-out: % of control remaining

CSc1ccc2c(c1)N(CCC1CCCCN1C)c1ccccc1S2 (centres unmarked) [Thioridazine]
remaining activity at 1.25 µM ([1]; Well no.=2140, low concentration screen, read-out: % of control remaining): 97.3%
remaining activity at 3.75 µM ([2]; Well no.=2140, high concentration screen, read-out: % of control remaining): 96.6%

N[C@@H](CC(=O)O)C(=O)O [L -Aspartic acid hemimagnesium salt hydrate]
remaining activity at 1.25 µM ([1]; Well no.=5897, low concentration screen, read-out: % of control remaining): 103%
remaining activity at 3.75 µM ([2]; Well no.=5897, high concentration screen, read-out: % of control remaining): 105%

CN1CCC(=C2c3ccccc3CCn3c(C=O)cnc32)CC1 [Alcaftadine]
remaining activity at 1.25 µM ([1]; Well no.=6573, low concentration screen, read-out: % of control remaining): 94.6%
remaining activity at 3.75 µM ([2]; Well no.=6573, high concentration screen, read-out: % of control remaining): 91.1%

KIPYIL [Neuromedin N]
remaining activity at 1.25 µM ([1]; Well no.=8061, low concentration screen, read-out: % of control remaining): 91.8%
remaining activity at 1.25 µM ([1]; Well no.=8502, low concentration screen, read-out: % of control remaining): 105%
remaining activity at 3.75 µM ([2]; Well no.=8061, high concentration screen, read-out: % of control remaining): 90.1%
remaining activity at 3.75 µM ([2]; Well no.=8502, high concentration screen, read-out: % of control remaining): 102%

CC1=CC(=O)c2c(O)cccc2C1=O [Plumbagin]
remaining activity at 1.25 µM ([1]; Well no.=3351, low concentration screen, read-out: % of control remaining): 85.5%
remaining activity at 3.75 µM ([2]; Well no.=3351, high concentration screen, read-out: % of control remaining): 79.6%

CC(N)Cc1c[nH]c2ccc(O)cc12 (stereo not drawn) [alpha-Methyl-5-hydroxytryptamine maleate]
remaining activity at 1.25 µM ([1]; Well no.=895, low concentration screen, read-out: % of control remaining): 106%
remaining activity at 3.75 µM ([2]; Well no.=895, high concentration screen, read-out: % of control remaining): 106%

CC1(C)C2CCC1(C(=O)O)C(=O)C2 (centres unmarked) [Ketopinic acid]
remaining activity at 1.25 µM ([1]; Well no.=3353, low concentration screen, read-out: % of control remaining): 92.9%
remaining activity at 3.75 µM ([2]; Well no.=3353, high concentration screen, read-out: % of control remaining): 96.9%

N[C@@H](CS)C(=O)O [L-Cysteine]
remaining activity at 1.25 µM ([1]; Well no.=7783, low concentration screen, read-out: % of control remaining): 107%
remaining activity at 3.75 µM ([2]; Well no.=7783, high concentration screen, read-out: % of control remaining): 109%

NC1CCN(O)C1=O (racemic)
remaining activity at 1.25 µM ([1]; Well no.=250, low concentration screen, read-out: % of control remaining): 101%
remaining activity at 3.75 µM ([2]; Well no.=250, high concentration screen, read-out: % of control remaining): 103%

CN(C)C/C=C(/c1ccc(Br)cc1)c1cccnc1 [Zimelidine dihydrochloride]
remaining activity at 1.25 µM ([1]; Well no.=1534, low concentration screen, read-out: % of control remaining): 96.1%
remaining activity at 3.75 µM ([2]; Well no.=1534, high concentration screen, read-out: % of control remaining): 96%

C[N+]1(C)[C@@H]2C[C@@H](OC(=O)[C@H](CO)c3ccccc3)C[C@H]1[C@@H]1O[C@@H]12 [(-)-Scopolamine methyl bromide]
remaining activity at 1.25 µM ([1]; Well no.=1510, low concentration screen, read-out: % of control remaining): 96.7%
remaining activity at 3.75 µM ([2]; Well no.=1510, high concentration screen, read-out: % of control remaining): 97.5%

COC(=O)C1=C(C)NC(C)=C(C(=O)OCCN2CCN(C(c3ccccc3)c3ccccc3)CC2)C1c1cccc([N+](=O)[O-])c1 (centres unmarked) [Manidipine]
remaining activity at 1.25 µM ([1]; Well no.=1788, low concentration screen, read-out: % of control remaining): 104%
remaining activity at 3.75 µM ([2]; Well no.=1788, high concentration screen, read-out: % of control remaining): 99.9%

O=C1NC(=O)/C(=C/c2ccc3nccc(-c4ccncc4)c3c2)S1 [GSK1059615]
remaining activity at 1.25 µM ([1]; Well no.=5191, low concentration screen, read-out: % of control remaining): 104%
remaining activity at 3.75 µM ([2]; Well no.=5191, high concentration screen, read-out: % of control remaining): 99.2%

O=C(O)[C@H](Cc1ccc(Nc2nccc3ccncc23)cc1)NC1=C(Br)C(=O)C12CCCCC2 [Zaurategrast]
remaining activity at 1.25 µM ([1]; Well no.=7838, low concentration screen, read-out: % of control remaining): 98.1%
remaining activity at 3.75 µM ([2]; Well no.=7838, high concentration screen, read-out: % of control remaining): 99.7%

CCCCC1(C2CCCC2)Cc2cc(OCC(=O)O)c(Cl)c(Cl)c2C1=O (stereo in doubt) [R(+)-Butylindazone]
remaining activity at 1.25 µM ([1]; Well no.=640, low concentration screen, read-out: % of control remaining): 97.4%
remaining activity at 3.75 µM ([2]; Well no.=640, high concentration screen, read-out: % of control remaining): 101%

COc1ccc(C(=O)c2c(C)n(CCN3CCOCC3)c3ccccc23)cc1 [Pravadoline]
remaining activity at 1.25 µM ([1]; Well no.=1805, low concentration screen, read-out: % of control remaining): 97.2%
remaining activity at 3.75 µM ([2]; Well no.=1805, high concentration screen, read-out: % of control remaining): 97.7%

COc1cc2c(c(OC)c1OC)-c1ccc(OC)c(=O)cc1[C@@H](NC=O)CC2 [N-Formyl-Deacetylcolchicine]
remaining activity at 1.25 µM [1, 3]: 102%
remaining activity at 3.75 µM [2, 3]: 103%

CCOC(=O)c1cnc2c(cnn2CC)c1NN=C(C)C [Etazolate]
remaining activity at 1.25 µM ([1]; Well no.=2144, low concentration screen, read-out: % of control remaining): 93.8%
remaining activity at 3.75 µM ([2]; Well no.=2144, high concentration screen, read-out: % of control remaining): 97.1%

C[N+]1(C)[C@@H]2CC[C@H]1C[C@@H](OC(=O)C(CO)c1ccccc1)C2 (some centres unmarked) [Atropine methyl nitrate]
remaining activity at 1.25 µM ([1]; Well no.=245, low concentration screen, read-out: % of control remaining): 99.7%
remaining activity at 3.75 µM ([2]; Well no.=245, high concentration screen, read-out: % of control remaining): 100%

Nc1nccc(/C=C/c2ccccc2)n1 [TCN238]
remaining activity at 1.25 µM ([1]; Well no.=7855, low concentration screen, read-out: % of control remaining): 99.5%
remaining activity at 3.75 µM ([2]; Well no.=7855, high concentration screen, read-out: % of control remaining): 94.5%

OCCOCCN1CCN(C2=Nc3ccccc3Sc3ccccc32)CC1 [Quetiapine (fumarate)]
remaining activity at 1.25 µM ([1]; Well no.=6237, low concentration screen, read-out: % of control remaining): 98.2%
remaining activity at 3.75 µM ([2]; Well no.=6237, high concentration screen, read-out: % of control remaining): 94.3%

CC(C)[C@@]1(O)[C@@H](OC(=O)c2ccc[nH]2)[C@@]2(O)[C@@]3(C)C[C@]4(O)O[C@@]5([C@H](O)[C@@H](C)CC[C@]35O)[C@@]2(O)[C@@]14C [Ryanodine]
remaining activity at 1.25 µM ([1]; Well no.=3583, low concentration screen, read-out: % of control remaining): 104%
remaining activity at 3.75 µM ([2]; Well no.=3583, high concentration screen, read-out: % of control remaining): 105%

CCC(C)(C)C(=O)O[C@H]1C[C@@H](C)C=C2C=C[C@H](C)[C@H](CC[C@@H]3C[C@@H](O)CC(=O)O3)[C@H]21 [Simvastatin]
remaining activity at 1.25 µM ([1]; Well no.=1620, low concentration screen, read-out: % of control remaining): 107%
remaining activity at 3.75 µM ([2]; Well no.=1620, high concentration screen, read-out: % of control remaining): 107%

CCN(CC)CCOCCOC(=O)C1(c2ccccc2)CCCC1 [Carbetapentane citrate]
remaining activity at 1.25 µM ([1]; Well no.=368, low concentration screen, read-out: % of control remaining): 90.8%
remaining activity at 3.75 µM ([2]; Well no.=368, high concentration screen, read-out: % of control remaining): 92.5%

C[N+](C)(C)CCCCCCCCCC[N+](C)(C)C [Decamethonium dibromide]
remaining activity at 1.25 µM ([1]; Well no.=683, low concentration screen, read-out: % of control remaining): 94%
remaining activity at 3.75 µM ([2]; Well no.=683, high concentration screen, read-out: % of control remaining): 95.4%

CN(C)Cc1c(C(=O)NCCOc2ccc(C(=O)NO)cc2)oc2ccccc12 [PCI-24781]
remaining activity at 1.25 µM ([1]; Well no.=4840, low concentration screen, read-out: % of control remaining): 101%
remaining activity at 3.75 µM ([2]; Well no.=4840, high concentration screen, read-out: % of control remaining): 100%

CNCC(=O)c1ccc(O)c(O)c1 [Adrenalone HCl]
remaining activity at 1.25 µM ([1]; Well no.=5034, low concentration screen, read-out: % of control remaining): 94.7%
remaining activity at 3.75 µM ([2]; Well no.=5034, high concentration screen, read-out: % of control remaining): 94.4%

C=C[C@H]1CN2CC[C@H]1C[C@@H]2[C@@H](O)c1ccnc2ccccc12 [Cinchonine]
remaining activity at 1.25 µM ([1]; Well no.=7012, low concentration screen, read-out: % of control remaining): 97.3%
remaining activity at 3.75 µM ([2]; Well no.=7012, high concentration screen, read-out: % of control remaining): 93.6%

COc1cc2c(Oc3ccc4[nH]c(C)cc4c3F)ncnc2cc1OCCCN1CCCC1 [Cediranib (AZD2171)]
remaining activity at 1.25 µM ([1]; Well no.=4999, low concentration screen, read-out: % of control remaining): 101%
remaining activity at 3.75 µM ([2]; Well no.=4999, high concentration screen, read-out: % of control remaining): 103%

Cc1ncc([N+](=O)[O-])n1CC(C)O (centres unmarked) [Secnidazole]
remaining activity at 1.25 µM ([1]; Well no.=2247, low concentration screen, read-out: % of control remaining): 99.7%
remaining activity at 3.75 µM ([2]; Well no.=2247, high concentration screen, read-out: % of control remaining): 97.7%

C=CCN1CC[C@]23c4c5ccc(O)c4O[C@H]2/C(=N/NC(=O)c2ccccc2)CC[C@@]3(O)[C@H]1C5 [Naloxone benzoylhydrazone]
remaining activity at 1.25 µM ([1]; Well no.=798, low concentration screen, read-out: % of control remaining): 93.2%
remaining activity at 3.75 µM ([2]; Well no.=798, high concentration screen, read-out: % of control remaining): 99.5%

CC(C)[C@]12O[C@H]1[C@@H]1O[C@]13[C@]1(O[C@H]1C[C@H]1C4=C(CC[C@@]13C)C(=O)OC4)[C@@H]2O [Triptolide]
remaining activity at 1.25 µM ([1]; read-out: % of control remaining, Well no.=4642, low concentration screen): 99.8%
remaining activity at 3.75 µM ([2]; read-out: % of control remaining, Well no.=4642, high concentration screen): 98.1%

CC1(C)CCC[C@](C)([C@H]2CC[C@]3(C)[C@@H]2[C@H](O)C[C@@H]2[C@@]4(C)CC[C@H](O)C(C)(C)[C@@H]4[C@@H](O)C[C@]23C)O1 [Panaxatriol]
remaining activity at 1.25 µM ([1]; Well no.=3699, low concentration screen, read-out: % of control remaining): 94.8%
remaining activity at 3.75 µM ([2]; Well no.=3699, high concentration screen, read-out: % of control remaining): 101%

C[C@@H]1C[C@H]2[C@@H]3CCC4=CC(=O)C=C[C@]4(C)[C@@]3(Cl)[C@@H](O)C[C@]2(C)[C@@]1(OC(=O)c1ccco1)C(=O)CCl [Mometasone furoate]
remaining activity at 1.25 µM ([1]; Well no.=4668, low concentration screen, read-out: % of control remaining): 103%
remaining activity at 1.25 µM ([1]; Well no.=6700, low concentration screen, read-out: % of control remaining): 92.3%
remaining activity at 3.75 µM ([2]; Well no.=4668, high concentration screen, read-out: % of control remaining): 103%
remaining activity at 3.75 µM ([2]; Well no.=6700, high concentration screen, read-out: % of control remaining): 89.6%

Cn1cnc2cc3c(Nc4cccc(Br)c4)ncnc3cc21 [BPIQ-I]
remaining activity at 1.25 µM ([1]; Well no.=2357, low concentration screen, read-out: % of control remaining): 101%
remaining activity at 3.75 µM ([2]; Well no.=2357, high concentration screen, read-out: % of control remaining): 99%
